Converted amounts (≈) assume the structure as drawn.
Assays:
Type in all cases: cell-based
Candida albicans [1] = experiment: In vitro antifungal activity, RPMI and 10% fetal calf serum broth
Description: (§1) In those tables, a dash or "N.T." means the material was not tested.

[2] = test system: Trichophyton mentagrophytes; experiment: as above
Description: as §1

Aspergillus fumigatus [3] = experiment: In vitro antifungal activity, Sabouraud's and Dextrose broth
Description: as §1

Candida albicans [4] = experiment: as above
Description: as §1

[5] = test system: Trichophyton mentagrophytes; experiment: as above
Description: as §1

Aspergillus fumigatus [6] = experiment: In vitro antifungal activity, RPMI and 10% fetal calf serum broth; settings: Table 5
Description: as §1

Aspergillus fumigatus [7] = experiment: In vitro antifungal activity, Antibiotic 3 broth (Difco); settings: Table 7
Description: as §1

Candida albicans [8] = experiment: as above; settings: Table 7
Description: as §1

[9] = test system: Trichophyton mentagrophytes; experiment: as above
Description: as §1

[10] = test system: L1210 murine leukemia cell line; experiment: Disk diffusion soft agar colony formation assay; settings: 200 zone units = 6 MM
Experimental: (§2) The method of performing the disk diffusion soft agar colony […] assay is described in Chapter 3 of Cytotoxic Anticancer Drugs: Models and Concepts for Drug Discovery and Development (Frederick A. Valeriote, et al., eds., 1990). In addition to the procedure taught in this reference, one mL ethanol was added to each dry factor in a vial, and the desired concentration of solution was placed on a paper disk. The disk was dried and then placed on soft agar plates as described in the reference.
L1210 = murine leukemia cell line
(§3) ^2 Measurement in zone units; 200 zone units = 6 MM

[11] = test system: P03 murine pancreatic solid tumor cell line; experiment: Disk diffusion soft agar colony formation assay; settings: 200 zone units = 6 MM
Experimental: as §2
P03 = murine pancreatic solid tumor cell line
as §3

[12] = test system: C38 murine colon solid tumor cell line; experiment: Disk diffusion soft agar colony formation assay; settings: 200 zone units = 6 MM
Experimental: as §2
C38 = murine colon solid tumor cell line
as §3

[13] = test system: Mam17 murine mammary solid tumor cell line; experiment: Disk diffusion soft agar colony formation assay; settings: 200 zone units = 6 MM
Experimental: as §2
Mam17 = murine mammary solid tumor cell line
as §3

[14] = test system: H8 human colon solid tumor cell line; experiment: Disk diffusion soft agar colony formation assay; settings: 200 zone units = 6 MM
Experimental: as §2
H8 = human colon solid tumor cell line
as §3

[15] = test system: LML "Low Malignancy Line" fibroblast; experiment: Disk diffusion soft agar colony formation assay; settings: 200 zone units = 6 MM
Experimental: as §2
LML = "Low Malignancy Line" fibroblast
as §3

[16] = test system: CX-1 human colon solid tumor cell line; experiment: Disk diffusion soft agar colony formation assay; settings: factor line, no dose given, 200 zone units = 6 MM
Experimental: as §2
CX1 = human colon solid tumor cell line
as §3

[17] = Table 3, RPMI & 10% Fetal Calf Serum Broth
[18] = Table 5, RPMI and 10% Fetal Calf Serum Broth
[19] = Table 1, RPMI and 10% Fetal Calf Serum Broth
[20] = unlabelled line below the (45 ug) line
[21] = unlabelled line below the (80 ug) line

Row | Structure (SMILES) | MIC (Candida albicans [1]; [17]) [µg/mL] | MIC [2, 17] [µg/mL] | MIC (Aspergillus fumigatus [3]; Table 4) [µg/mL] | MIC (Candida albicans [4]; Table 4) [µg/mL] | MIC ([5]; Table 4) [µg/mL] | MIC (Aspergillus fumigatus [6]) [µg/mL] | MIC (Candida albicans [1]; [18]) [µg/mL] | MIC (Aspergillus fumigatus [3]; Table 6) [µg/mL] | MIC (Candida albicans [4]; Table 6) [µg/mL] | MIC (Aspergillus fumigatus [7]) [µg/mL] | MIC (Candida albicans [8]) [µg/mL] | Measurement in zone units ([10]; 20 ug per disk) | Measurement in zone units ([10]; 80 ug per disk) | Measurement in zone units ([10]; factor line, no dose given) | Measurement in zone units ([12]; 20 ug per disk) | Measurement in zone units ([12]; 80 ug per disk) | Measurement in zone units ([13]; factor line, no dose given) [zone units] | Measurement in zone units ([14]; 20 ug per disk) | Measurement in zone units ([15]; 20 ug per disk) | Measurement in zone units ([15]; 80 ug per disk) | further results
1 | [C-]#[N+]C12C(O)C(O)C(C)(C)c3[nH]c4cccc5c4c3C1(O)C(CC(Cl)C2(C)C=C)C5(C)C (stereo not drawn) [A89271 D] | 1.25 (≈ 2.75 µM) | 0.625 (≈ 1.37 µM) | > 80 | 1.25 (≈ 2.75 µM) | > 80 |  |  |  |  |  |  |  |  |  |  |  |  |  |  |  | 
2 | [C-]#[N+]C1C(C)(C=C)C(Cl)CC2C(C)(C)c3cccc4[nH]c(C(C)(C)C=C)c(c34)C21O (stereo not drawn) [A89271 C] | 1.25 (≈ 2.96 µM) | 0.625 (≈ 1.48 µM) | > 80 | 2.5 (≈ 5.91 µM) | > 80 |  |  |  |  |  |  |  |  |  |  |  |  |  |  |  | 
3 | [C-]#[N+]C12C3OC3C(C)(C)c3[nH]c4cccc5c4c3C1(O)C(CCC2(C)C=C)C5(C)C (stereo not drawn) [A89271 I] |  |  |  |  |  | > 80 | 1.25 (≈ 3.11 µM) | > 80 | 2.5 (≈ 6.21 µM) | > 80 | 1.25 (≈ 3.11 µM) | 100-250 zone units | 200-220 zone units | 260 zone units | 680 zone units | 500 zone units | 250 | 100-180 zone units | 0-180 zone units | 100-200 zone units | MIC [2, 18]: 2.5 µg/mL (≈ 6.21 µM); MIC ([5]; Table 6): 2.5 µg/mL (≈ 6.21 µM); MIC ([9]; Table 7): 5.0 µg/mL (≈ 12.4 µM); Measurement in zone units ([10]; 16 ug per disk): 110 zone units; Measurement in zone units ([11]; 16 ug per disk): 420 zone units; Measurement in zone units ([11]; 80 ug per disk): 490 zone units; Measurement in zone units ([12]; 16 ug per disk): 390 zone units; Measurement in zone units ([14]; 16 ug per disk): 120 zone units; Measurement in zone units ([15]; factor line, no dose given): 0-200 zone units
4 | [C-]#[N+]C1C2c3c(C(C)(C)C=C)[nH]c4cccc(c34)C(C)(C)C2CC(Cl)C1(C)C=C (stereo not drawn) [A89271 B] | 1.25 (≈ 3.07 µM) | 2.5 (≈ 6.14 µM) | 20 (≈ 49.1 µM) | 1.25 (≈ 3.07 µM) | > 80 |  |  |  |  |  |  | 100-200 zone units | 200-250 zone units | 210 zone units | 260-400 zone units | 430 zone units | 220 | 180 zone units | 0-100 zone units | 80-250 zone units | Measurement in zone units [16]: 220 zone units; Measurement in zone units ([14]; 80 ug per disk): 200-300 zone units; Measurement in zone units ([15]; factor line, no dose given): 0-250 zone units
5 | [C-]#[N+]C12C3OC3C(C)(C)C3=Nc4cccc5c4C3(O)C1(O)C(CC(Cl)C2(C)C=C)C5(C)C (stereo not drawn) [A89271 A] |  |  |  |  |  |  |  |  |  |  |  |  |  | 0-400 zone units |  |  |  |  |  |  | MIC (Candida albicans [1]; [19]): 2.5 µg/mL (≈ 5.52 µM); MIC [2, 19]: > 20 µg/mL; MIC (Aspergillus fumigatus [3]; Table 2): 80 µg/mL (≈ 177 µM); MIC (Candida albicans [4]; Table 2): 2.5 µg/mL (≈ 5.52 µM); MIC ([5]; Table 2): 10 µg/mL (≈ 22.1 µM); Measurement in zone units ([10]; 9 ug per disk): 200-250 zone units; Measurement in zone units ([10]; 11 ug per disk): 250-320 zone units; Measurement in zone units ([11]; 9 ug per disk): 500 zone units; Measurement in zone units ([11]; factor line, no dose given): 650 zone units; Measurement in zone units ([12]; 9 ug per disk): 480 zone units; Measurement in zone units ([12]; 11 ug per disk): 610 zone units; Measurement in zone units ([12]; 45 ug per disk): 670 zone units; Measurement in zone units ([12]; factor line, no dose given): 650 zone units; Measurement in zone units [12, 20]: 750 zone units; Measurement in zone units [16]: 600-650 zone units; Measurement in zone units ([14]; 9 ug per disk): 200-330 zone units; Measurement in zone units ([14]; 11 ug per disk): 250-420 zone units; Measurement in zone units [14, 20]: 300-470 zone units; Measurement in zone units ([15]; 11 ug per disk): 0-300 zone units; Measurement in zone units [15, 20]: 0-300 zone units
6 | [C-]#[N+]C1C(C)(C=C)CCC2C(C)(C)c3cccc4[nH]c(C(C)(C)C=C)c(c34)C12O (stereo not drawn) [A89271 E] |  |  |  |  |  | > 80 | 2.5 (≈ 6.43 µM) | > 80 | 5 (≈ 12.9 µM) | > 80 | 5.0 (≈ 12.9 µM) | 100-200 zone units | 250-300 zone units | 280 zone units | 300-360 zone units |  | 350 | 100-180 zone units | 80 zone units | 100-180 zone units | MIC [2, 18]: 2.5 µg/mL (≈ 6.43 µM); MIC ([5]; Table 6): 2.5 µg/mL (≈ 6.43 µM); MIC ([9]; Table 7): 5.0 µg/mL (≈ 12.9 µM); Measurement in zone units [10, 21]: 200-220 zone units; Measurement in zone units ([11]; 80 ug per disk): 440-500 zone units; Measurement in zone units [11, 21]: 460 zone units; Measurement in zone units ([12]; factor line, no dose given): 300 zone units; Measurement in zone units [12, 21]: 480-500 zone units; Measurement in zone units ([14]; 80 ug per disk): 220-240 zone units
7 | Cc1cccc(N(C)C(=S)Oc2ccc3ccccc3c2)c1 [Tolnaftate, reference compound] |  |  |  |  |  |  |  |  |  |  |  |  |  |  |  |  |  |  |  |  | MIC ([2]; Table 1, RPMI and 10% Fetal Calf Serum Broth, read-out: MIC): 0.039 µg/mL (≈ 0.127 µM); MIC ([2]; Table 3, RPMI & 10% Fetal Calf Serum Broth, read-out: MIC): < 0.02 µg/mL; MIC ([2]; Table 5, RPMI and 10% Fetal Calf Serum Broth, read-out: MIC): 0.02 µg/mL (≈ 0.0651 µM); MIC ([5]; Table 2, read-out: MIC): 0.039 µg/mL (≈ 0.127 µM); MIC ([5]; Table 4, read-out: MIC): < 0.02 µg/mL; MIC ([5]; Table 6, read-out: MIC): 0.02 µg/mL (≈ 0.0651 µM); MIC ([9]; Table 7, read-out: MIC): 0.02 µg/mL (≈ 0.0651 µM)
8 | [C-]#[N+]C12C3OC3C(C)(C)c3[nH]c4cccc5c4c3C1(O)C(CC(Cl)C2(C)C=C)C5(C)C (stereo not drawn) [A89271 F] | 1.25 (≈ 2.86 µM) | 1.25 (≈ 2.86 µM) | > 80 | 1.25 (≈ 2.86 µM) | > 80 |  |  |  |  |  |  | 300-350 zone units | 350-460 zone units | 200-250 zone units | 590 zone units | 550-580 zone units |  | 200-350 zone units | 0-80 zone units | 0-120 zone units | Measurement in zone units ([10]; 8 ug per disk): 250-280 zone units; Measurement in zone units ([10]; 16 ug per disk): 0-220 zone units; Measurement in zone units ([11]; 16 ug per disk): 440 zone units; Measurement in zone units ([11]; factor line, no dose given): 500 zone units; Measurement in zone units ([12]; 16 ug per disk): 460 zone units; Measurement in zone units ([12]; factor line, no dose given): 500 zone units; Measurement in zone units ([13]; 8 ug per disk): 250 zone units; Measurement in zone units ([14]; 16 ug per disk): 200-330 zone units; Measurement in zone units ([14]; 80 ug per disk): 200-400 zone units; Measurement in zone units ([14]; factor line, no dose given): 200-300 zone units; Measurement in zone units ([15]; 8 ug per disk): 0-400 zone units
9 | C[C@@H]1[C@H](O)[C@@H](C)/C=C/C=C/C=C/C=C/C=C/C=C/C=C/[C@H](O[C@@H]2O[C@H](C)[C@@H](O)[C@H](N)[C@@H]2O)C[C@@H]2O[C@](O)(C[C@@H](O)C[C@@H](O)[C@H](O)CC[C@@H](O)C[C@@H](O)CC(=O)O[C@H]1C)C[C@H](O)[C@H]2C(=O)O [Amphotericin B, reference compound] | 0.156 (≈ 0.169 µM) |  | 1.25 (≈ 1.35 µM) | 0.312 (≈ 0.338 µM) |  | 1.25 (≈ 1.35 µM) | 0.625 (≈ 0.676 µM) | 5.0 (≈ 5.41 µM) | 0.312 (≈ 0.338 µM) | 0.039 (≈ 0.0422 µM) | 0.02 (≈ 0.0216 µM) |  |  |  |  |  |  |  |  |  | MIC (Candida albicans [1]; [19]): 0.156 µg/mL (≈ 0.169 µM); MIC (Aspergillus fumigatus [3]; Table 2): 1.25 µg/mL (≈ 1.35 µM); MIC (Candida albicans [4]; Table 2): 0.625 µg/mL (≈ 0.676 µM)

From US5457119A, “A89271 factors and processes for their production” (priority 1994, dated 1995)
